Structures can show the parent of a compound that is named as a salt. Activity calls are given as the source filed them. No cut-off for these calls is given here. Where a SMILES comes first, the peptide text is derived from it. Bridges are numbered along the chain shown (N, C = ends). [ ]: non-standard residue; d: D form. The star is where a group is joined. X1 = CC[C@H](C)CCCCC(=O)*; Dab = NCC[C@H](N)C(=O)O; Tfa = O=C(C(F)(F)F)*
Assays:
[1] = test system: Staphylococcus aureus; experiment: Synergistic antibacterial activity against Staphylococcus aureus assessed as fractional inhibitory concentration index incubated for 24 hrs in presence of streptomycin; assay type: functional
[2] = test system: Lipid bilayer; experiment: Binding affinity to bacterial inner membrane mimic POPE/POPG (3:1) LUVs assessed as increase in intensity by one-dimensional 19F NMR based analysis
[3] = test system: Lipid bilayer; experiment: Binding affinity to mammalian membrane mimic DOPC/40% cholesterol assessed as calcein leakage at 20 uM by fluorescence based assay; assay type: ADME
[4] = test system: Pseudomonas aeruginosa; experiment: Potentiation of polymyxin B-induced antibacterial activity against Pseudomonas aeruginosa assessed as polymyxin B MIC incubated for 24 hrs by microplate reader method; assay type: functional
[5] = test system: Staphylococcus aureus; experiment: Potentiation of streptomycin-induced antibacterial activity against Staphylococcus aureus assessed as streptomycin MIC incubated for 24 hrs by microplate reader method; assay type: functional
[6] = test system: Escherichia coli; experiment: Potentiation of polymyxin B-induced antibacterial activity against Escherichia coli assessed as polymyxin B MIC incubated for 24 hrs by microplate reader method; assay type: functional
[7] = Induction of yeast killing at 50 uM incubated for 72 hrs in presence of Ura3 and absence of FOA by absorbance based analysis; conditions: saccharomyces cerevisiae
[8] = molecular target: NAD-dependent histone deacetylase SIR2 (Saccharomyces cerevisiae S288c) (UniProt P06700); experiment: Inhibition of yeast sirtuin2-mediated Ura3 transcriptional silencing at telomeric locus assessed as yeast killing at 50 uM incubated for 72 hrs in presence of FOA by absorbance based analysis
Chain of NAD-dependent histone deacetylase SIR2 (Saccharomyces cerevisiae S288c) (P06700 whole entry): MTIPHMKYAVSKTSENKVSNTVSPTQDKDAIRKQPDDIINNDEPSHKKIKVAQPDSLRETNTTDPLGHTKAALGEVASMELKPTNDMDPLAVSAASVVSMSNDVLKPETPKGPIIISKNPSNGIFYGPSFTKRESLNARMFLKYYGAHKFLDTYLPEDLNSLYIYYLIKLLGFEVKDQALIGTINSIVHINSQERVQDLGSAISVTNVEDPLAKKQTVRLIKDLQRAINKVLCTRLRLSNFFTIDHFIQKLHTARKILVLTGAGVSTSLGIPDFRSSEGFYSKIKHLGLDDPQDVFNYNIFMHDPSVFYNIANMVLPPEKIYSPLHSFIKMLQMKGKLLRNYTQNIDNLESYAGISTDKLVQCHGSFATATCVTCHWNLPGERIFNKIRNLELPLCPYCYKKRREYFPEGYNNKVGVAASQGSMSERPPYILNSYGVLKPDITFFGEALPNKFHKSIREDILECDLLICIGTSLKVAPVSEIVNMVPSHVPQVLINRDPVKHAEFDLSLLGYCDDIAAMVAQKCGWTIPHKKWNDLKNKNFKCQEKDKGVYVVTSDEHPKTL

[9] = test system: Escherichia coli; experiment: Antibacterial activity against Escherichia coli assessed as reduction in microbial growth after 24 hrs in presence of polymyxin B by microplate reader method; assay type: functional
[10] = test system: Staphylococcus aureus; experiment: Antibacterial activity against Staphylococcus aureus assessed as reduction in microbial growth after 24 hrs in presence of streptomycin by microplate reader method; assay type: functional
[11] = test system: Staphylococcus aureus; experiment: Antibacterial activity against Staphylococcus aureus assessed as reduction in microbial growth after 24 hrs by microplate reader method; assay type: functional
[12] = test system: Escherichia coli; experiment: Antibacterial activity against Escherichia coli assessed as reduction in microbial growth after 24 hrs by microplate reader method; assay type: functional
[13] = test system: Pseudomonas aeruginosa; experiment: Antibacterial activity against Pseudomonas aeruginosa assessed as reduction in microbial growth after 24 hrs by microplate reader method; assay type: functional
[14] = test system: Staphylococcus aureus; experiment: Antibiofilm activity against Staphylococcus aureus assessed as biofilm eradication incubated for 24 hrs by crystal violet staining assay; assay type: functional
[15] = test system: Escherichia coli; experiment: Antibiofilm activity against Escherichia coli assessed as biofilm eradication incubated for 24 hrs by crystal violet staining assay; assay type: functional
[16] = test system: Staphylococcus aureus; experiment: Antibiofilm activity against Staphylococcus aureus assessed as inhibition of biofilm formation incubated for 48 hrs by crystal violet staining assay; assay type: functional
[17] = test system: Escherichia coli; experiment: Antibiofilm activity against Escherichia coli assessed as as inhibition of biofilm formation incubated for 48 hrs by crystal violet staining assay; assay type: functional
[18] = test system: Cell membrane; experiment: Disruption of membrane integrity in Escherichia coli at 2 times MIC measured after 20 mins by SEM analysis
[19] = test system: Cell membrane; experiment: Disruption of membrane integrity in Staphylococcus aureus at 2 times MIC measured after 20 mins by SEM analysis
[20] = test system: Cell membrane; experiment: Disruption of membrane integrity in Escherichia coli at 2 times MIC by TEM analysis
[21] = test system: Escherichia coli; experiment: Synergistic antibacterial activity against Escherichia coli assessed as fractional inhibitory concentration index incubated for 24 hrs in presence of Polymyxin B; assay type: functional
[22] = test system: Pseudomonas aeruginosa; experiment: Synergistic antibacterial activity against Pseudomonas aeruginosa assessed as fractional inhibitory concentration index incubated for 24 hrs in presence of Polymyxin B; assay type: functional
[23] = test system: Lipid bilayer; experiment: Binding affinity to bacterial inner membrane mimic DOPE/DOPG (3:1) large unilamellar vesicles assessed as calcein leakage at 2.5 uM by fluorescence based assay
[24] = test system: Lipid bilayer; experiment: Binding affinity to bacterial inner membrane mimic DOPE/DOPG (3:1) large unilamellar vesicles assessed as calcein leakage at 20 uM by fluorescence based assay
[25] = Hemolytic activity against mouse RBC at 1000 uM measured after 1 hr by microplate reader analysis; assay type: cell-based, Erythrocyte; conditions: mouse red blood cells (erythrocytes), read-out: Activity
[26] = test system: HeLa; experiment: Cytotoxicity against human HeLa cells assessed as reduction in cell viability incubated for 48 hrs by MTT assay; assay type: cell-based
[27] = test system: BE(2)-C; experiment: Cytotoxicity against human BE(2)-C cells assessed as reduction in cell viability incubated for 48 hrs by MTT assay; assay type: cell-based
[28] = test system: Staphylococcus aureus; experiment: Antibiofilm activity against Staphylococcus aureus assessed as biofilm eradication at 2XMBEC incubated for 12 hrs by SYTO9/PI staining based microscopic analysis; assay type: functional, organism-based
[29] = test system: Escherichia coli; experiment: Antibiofilm activity against Escherichia coli assessed as biofilm eradication at 2XMBEC incubated for 12 hrs by SYTO9/PI staining based microscopic analysis; assay type: functional, organism-based
[30] = test system: Cell membrane; experiment: Disruption of membrane integrity in Staphylococcus aureus at 2 times MIC by TEM analysis
[31] = test system: Cell membrane; experiment: Disruption of membrane integrity in Escherichia coli assessed as cellular leakage at 2 times MIC by TEM analysis
[32] = Inhibition of transcriptional machinery using Puc19-lacCONS plasmid DNA and Escherichia coli RNA polymerase-sigma70 holoenzyme at 10 uM incubated for 35 mins followed by NTP addition for 30 mins by spectrofluorometer analysis; assay type: functional; conditions: time 65.0 min
[33] = test system: Pseudomonas aeruginosa; experiment: Antibacterial activity against Pseudomonas aeruginosa assessed as reduction in microbial growth after 24 hrs in presence of polymyxin B by microplate reader method; assay type: functional
[34] = test system: Staphylococcus aureus; experiment: Potentiation of streptomycin-induced antibacterial activity against Staphylococcus aureus assessed as fold change in streptomycin MIC incubated for 24 hrs by microplate reader method; assay type: functional

In the case of `CC(=O)N[C@@H](Cc1ccc(O)cc1)C(=O)NCC(=O)N[C@@H](CCCNC(=N)N)C(=O)N[C@@H](CCCCN)C(=O)N[C@@H](CCCCN)C(=O)N[C@@H](CCCNC(=N)N)C(=O)N[C@@H](CCCNC(=N)N)C(=O)N[C@@H](CCC(N)=O)C(=O)N[C@@H](CCCNC(=N)N)C(=O)N[C@@H](CCCNC(=N)N)C(=O)N[C@@H](CCCNC(=N)N)C(=O)NCC(=O)NCC(=O)NCC(=O)N[C@@H](CCCCN)C(=O)NCC(=O)N[C@@H](CC(C)C)C(=O)N[C@@H](CCCNC(=N)N)C(=O)N[C@@H](CCCCNC(=O)C(F)(F)F)C(=O)N[C@@H](Cc1ccccc1)C(=O)NCC(=O)N[C@@H](C)C(=O)N[C@@H](CCCCN)C(=O)N[C@@H](CCCNC(=N)N)C(=O)N[C@@H](Cc1cnc[nH]1)C(=O)N[C@@H](CCCNC(=N)N)C(=O)N[C@@H](CS)C(=O)O` (Ac-YGRKKRRQRRRGGGKGLRK(Tfa)FGAKRHRC-OH), the “fractional inhibitory concentration index (FICI)” value [1] is reported as 0.22, the Activity [2] is reported as “Active” and the Activity [3] is reported as under 20%. It also gave an MIC [4] of 0.05 µM, an MIC [5] of 0.38 µM and an MIC [6] of 0.1 µM. The Activity [7] was “Toxic”, the inhibition [8] was “Active” and the MIC [9] was 0.63 µM. It also gave an MIC [10] of 0.05 µM, an MIC [11] of 0.2 µM and an MIC [12] of 1.5 µM. It also gave an MIC [13] of 25 µM, an MBEC [14] of 3.2 µM and an MBEC [15] of 62.5 µM. For the same compound, the MBIC [16] was 0.8 µM, the MBIC [17] was 15.6 µM and the Activity [18] was “Active”. The Activity [19] was “Active”, the Activity [20] was “Active” and the “fractional inhibitory concentration index (FICI)” value [21] was 0.73. For the same compound, the “fractional inhibitory concentration index (FICI)” value [22] was 0.42, the Activity [23] was 90% and the Activity [24] was “Active”. For the same compound, the hemolysis at 1 h, 1000 µM [25] was under 5%, the IC50 [26] was 20.2 µM and the IC50 [27] was 17.4 µM. For the same compound, the Activity [28] was “Active”, the Activity [29] was “Active” and the Activity [30] was “Active”. The Activity [31] was “Active”, the inhibition [32] was 100% and the MIC [33] was 12.5 µM. For the same compound, the “fold change (FC)” value [34] was 6.
For `CC(=O)N[C@@H](Cc1ccc(O)cc1)C(=O)NCC(=O)N[C@@H](CCCNC(=N)N)C(=O)N[C@@H](CCCCN)C(=O)N[C@@H](CCCCN)C(=O)N[C@@H](CCCNC(=N)N)C(=O)N[C@@H](CCCNC(=N)N)C(=O)N[C@@H](CCC(N)=O)C(=O)N[C@@H](CCCNC(=N)N)C(=O)N[C@@H](CCCNC(=N)N)C(=O)N[C@@H](CCCNC(=N)N)C(=O)O`, the MIC [11] was 1.5 µM, the MIC [12] was 50 µM and the MIC [13] was over 100 µM.
`CN[C@@H]1[C@H](O[C@H]2[C@H](O[C@H]3[C@H](O)[C@@H](O)[C@H](N=C(N)N)[C@@H](O)[C@@H]3N=C(N)N)O[C@@H](C)[C@]2(O)C=O)O[C@@H](CO)[C@H](O)[C@H]1O` [STREPTOMYCIN] gave an MIC [11] of 2.2 µM.
`CC[C@H](C)CCCCC(=O)N[C@@H](CCN)C(=O)N[C@H](C(=O)N[C@@H](CCN)C(=O)N[C@H]1CCNC(=O)[C@H]([C@@H](C)O)NC(=O)[C@H](CCN)NC(=O)[C@H](CCN)NC(=O)[C@H](CC(C)C)NC(=O)[C@@H](Cc2ccccc2)NC(=O)[C@H](CCN)NC1=O)[C@@H](C)O` (X1-[Dab]T[Dab][Dab][Dab][dF]L[Dab][Dab]T; lactam 4-C) gave an MIC [12] of 0.09 µM and an MIC [13] of 0.15 µM.
